Laboratory results: patent US3989730A, “Bone-seeking technetium-99m complex” (priority 1973, dated 1976)
Read-outs that look alike come from different tables or passages of the source.

How the values were obtained:
[1] = radioactive decay; cited from earlier work
[2] = 2 Hrs
[3] = Simultaneous distribution of 99mTc-EHDP and 85Sr in rabbits at 1-24 hours after intravenous injection; format: in vivo, adult New Zealand albino rabbits; details: for Blood, % Dose in Whole Organ: blood as 7 % of body weight; for Bone(Avg), % dose in whole organ: bone as 10 % of body weight; for Marrow, % Dose in Whole Organ: marrow as 2.2 % of body weight; for Muscle, % Dose in Whole Organ: muscle as 43 % of body weight
Protocol: Adult New Zealand albino rabbits having an average weight of 3.8 kg were utilized. Strontium-85 was employed as a standard for comparison. […] Each dosage is contained in a volume of 1 ml.
Multiple samples were counted from the tibia, femur, spine and pelvic bones; the total activity in the skeleton was estimated by assuming the whole skeleton consisted of equal proportions by weight of tibia, spine, femur and pelvis and that the skeletal mass was 10% of the body weight. […] The whole liver and both kidneys were weighed and multiple samples from each were counted to measure the total activity in each organ.

[4] = tested on: callous of three week-old fractures of tibia; experiment: Localization in callous of three week-old tibial fractures (rabbits), compared with strontium-85; format: in vivo, albino rabbits
Protocol: Adult New Zealand albino rabbits having an average weight of 3.8 kg were utilized. Strontium-85 was employed as a standard for comparison. In a typical experiment 20-250 μCi (i.e., containing approximately 1 mg/kg as the free acid of body weight) of 99mTc EHDP were injected intravenously into the rabbits through the marginal ear vein and compared with 10-20 μ Ci 85 Sr chloride administered simutaneously. Each dosage is contained in a volume of 1 ml.
The animals were sacrificed serially from 1 to 24 hours after injection and the activities in major organs were determined by counting multiple samples from each organ in a scintillation well counter (the technetium-99m counts were corrected for the Compton contributions from the strontium-85 activity in the technetium-99m energy window). Multiple samples were counted from the tibia, femur, spine and pelvic bones; the total activity in the skeleton was estimated by assuming the whole skeleton consisted of equal proportions by weight of tibia, spine, femur and pelvis and that the skeletal mass was 10% of the body weight. The red marrow was sampled from the femur and the total marrow was assumed to be 2.2% of the total body weight. Similarly, blood volume was assumed to be 7% and the skeletal muscle 43% of the body weight. The whole liver and both kidneys were weighed and multiple samples from each were counted to measure the total activity in each organ.
In another series of experiments carried out as described above, localization of technetium from its tin-phosphonate complex was determined in the callous of three week-old fractures of tibia in albino rabbits, again in comparison with strontium-85. Comparative radioassay of technetium-99m administered as the pertechnetate was measured in the callous of tibial fractures in rabbits at one and four hours after administration.

SMILES: [85Sr+2].[Cl-].[Cl-] [85Sr, reference compound]
- half-life of radionuclide [1]: 65 days
- Blood, % Dose in Whole Organ ([2]; AEDP 0.01 mg/kg): 2.99 % Dose
- Kidneys, % Dose in Whole Organ ([2]; AEDP 0.01 mg/kg): 0.329 % Dose
- Liver, % Dose in Whole Organ ([2]; AEDP 0.01 mg/kg): 0.568 % Dose
- Marrow, % Dose in Whole Organ ([2]; AEDP 0.01 mg/kg): 0.465 % Dose
- Urine, % Dose ([2]; AEDP 0.01 mg/kg): 20.97 % Dose
- Blood, % Dose in Whole Organ ([2]; AEDP 0.05 mg/kg): 2.50 % Dose
- Kidneys, % Dose in Whole Organ ([2]; AEDP 0.05 mg/kg): 0.353 % Dose
- Liver, % Dose in Whole Organ ([2]; AEDP 0.05 mg/kg): 0.613 % Dose
- Marrow, % Dose in Whole Organ ([2]; AEDP 0.05 mg/kg): 0.486 % Dose
- Urine, % Dose ([2]; AEDP 0.05 mg/kg): 11.95 % Dose
- Blood, % Dose in Whole Organ ([2]; AEDP 0.1 mg/kg): 2.48 % Dose
- Kidneys, % Dose in Whole Organ ([2]; AEDP 0.1 mg/kg): 0.324 % Dose
- Liver, % Dose in Whole Organ ([2]; AEDP 0.1 mg/kg): 0.654 % Dose
- Marrow, % Dose in Whole Organ ([2]; AEDP 0.1 mg/kg): 0.244 % Dose
- Urine, % Dose ([2]; AEDP 0.1 mg/kg): 12.1 % Dose
- Blood, % Dose in Whole Organ ([2]; AEDP 0.5 mg/kg): 4.36 % Dose
- Kidneys, % Dose in Whole Organ ([2]; AEDP 0.5 mg/kg): 0.384 % Dose
- Liver, % Dose in Whole Organ ([2]; AEDP 0.5 mg/kg): 0.720 % Dose
- Urine, % Dose ([2]; AEDP 0.5 mg/kg): 10.47 % Dose
- Urine, % Dose ([2]; EHDP 0.01 mg/kg): 23.66 % Dose
- Urine, % Dose ([2]; EHDP 0.05 mg/kg): 13.4 % Dose
- Urine, % Dose ([2]; EHDP 0.1 mg/kg): 11.31 % Dose
- Urine, % Dose ([2]; EHDP 0.5 mg/kg): 19.6 % Dose
- Blood, % Dose in Whole Organ ([2]; MDP 0.01 mg/kg): 3.27 % Dose
- Kidneys, % Dose in Whole Organ ([2]; MDP 0.01 mg/kg): 0.34 % Dose
- Liver, % Dose in Whole Organ ([2]; MDP 0.01 mg/kg): 0.65 % Dose
- Marrow, % Dose in Whole Organ ([2]; MDP 0.01 mg/kg): 0.53 % Dose
- Muscle, % Dose in Whole Organ ([2]; MDP 0.01 mg/kg): 5.69 % Dose
- One Femur, % Dose in Whole Organ ([2]; MDP 0.01 mg/kg): 3.46 % Dose
- Urine, % Dose ([2]; MDP 0.01 mg/kg): 10.3 % Dose
- Blood, % Dose in Whole Organ ([2]; MDP 0.05 mg/kg): 3.66 % Dose
- Kidneys, % Dose in Whole Organ ([2]; MDP 0.05 mg/kg): 0.46 % Dose
- Liver, % Dose in Whole Organ ([2]; MDP 0.05 mg/kg): 0.71 % Dose
- Marrow, % Dose in Whole Organ ([2]; MDP 0.05 mg/kg): 0.53 % Dose
- Muscle, % Dose in Whole Organ ([2]; MDP 0.05 mg/kg): 5.89 % Dose
- One Femur, % Dose in Whole Organ ([2]; MDP 0.05 mg/kg): 2.53 % Dose
- Urine, % Dose ([2]; MDP 0.05 mg/kg): 23.16 % Dose
- Blood, % Dose in Whole Organ ([2]; MDP 0.1 mg/kg): 3.95 % Dose
- Kidneys, % Dose in Whole Organ ([2]; MDP 0.1 mg/kg): 0.66 % Dose
- Liver, % Dose in Whole Organ ([2]; MDP 0.1 mg/kg): 1.05 % Dose
- Marrow, % Dose in Whole Organ ([2]; MDP 0.1 mg/kg): 0.57 % Dose
- Muscle, % Dose in Whole Organ ([2]; MDP 0.1 mg/kg): 9.32 % Dose
- One Femur, % Dose in Whole Organ ([2]; MDP 0.1 mg/kg): 2.80 % Dose
- Urine, % Dose ([2]; MDP 0.1 mg/kg): 15.4 % Dose
- Blood, % Dose in Whole Organ ([2]; MDP 0.5 mg/kg): 3.11 % Dose
- Kidneys, % Dose in Whole Organ ([2]; MDP 0.5 mg/kg): 0.45 % Dose
- Liver, % Dose in Whole Organ ([2]; MDP 0.5 mg/kg): 0.69 % Dose
- Marrow, % Dose in Whole Organ ([2]; MDP 0.5 mg/kg): 0.67 % Dose
- Muscle, % Dose in Whole Organ ([2]; MDP 0.5 mg/kg): 5.65 % Dose
- One Femur, % Dose in Whole Organ ([2]; MDP 0.5 mg/kg): 2.96 % Dose
- Urine, % Dose ([2]; MDP 0.5 mg/kg): 15.16 % Dose
- Bone(Avg), % dose / 1 % body weight ([3]; 1 Hr): 5.60 % dose / 1 % body weight
- Femur, % dose / 1 % body weight ([3]; 1 Hr): 4.90 % dose / 1 % body weight
- Kidneys, % Dose in Whole Organ ([3]; 1 Hr): 0.80 % dose
- Pelvis, % dose / 1 % body weight ([3]; 1 Hr): 7.07 % dose / 1 % body weight
- Spine, % dose / 1 % body weight ([3]; 1 Hr): 7.03 % dose / 1 % body weight
- Tibia, % dose / 1 % body weight ([3]; 1 Hr): 3.62 % dose / 1 % body weight
- Urine, % Dose ([3]; 1 Hr): 6.96 % dose
- Blood, % Dose in Whole Organ ([3]; 1 Hr): 11.9 % dose
- Bone(Avg), % dose in whole organ ([3]; 1 Hr): 56.0 % dose
- Marrow, % Dose in Whole Organ ([3]; 1 Hr): 0.91 % dose
- Muscle, % Dose in Whole Organ ([3]; 1 Hr): 13.4 % dose
- Bone(Avg), % dose / 1 % body weight ([3]; 2 Hrs): 6.44 % dose / 1 % body weight
- Femur, % dose / 1 % body weight ([3]; 2 Hrs): 5.74 % dose / 1 % body weight
- Kidneys, % Dose in Whole Organ ([3]; 2 Hrs): 0.64 % dose
- Pelvis, % dose / 1 % body weight ([3]; 2 Hrs): 7.70 % dose / 1 % body weight
- Spine, % dose / 1 % body weight ([3]; 2 Hrs): 7.59 % dose / 1 % body weight
- Tibia, % dose / 1 % body weight ([3]; 2 Hrs): 4.73 % dose / 1 % body weight
- Urine, % Dose ([3]; 2 Hrs): 18.0 % dose
- Blood, % Dose in Whole Organ ([3]; 2 Hrs): 7.08 % dose
- Bone(Avg), % dose in whole organ ([3]; 2 Hrs): 49.4 % dose
- Marrow, % Dose in Whole Organ ([3]; 2 Hrs): 0.76 % dose
- Muscle, % Dose in Whole Organ ([3]; 2 Hrs): 8.8 % dose
- Bone(Avg), % dose / 1 % body weight ([3]; 4 Hrs): 6.81 % dose / 1 % body weight
- Femur, % dose / 1 % body weight ([3]; 4 Hrs): 6.17 % dose / 1 % body weight
- Kidneys, % Dose in Whole Organ ([3]; 4 Hrs): 0.34 % dose
- Pelvis, % dose / 1 % body weight ([3]; 4 Hrs): 8.02 % dose / 1 % body weight
- Spine, % dose / 1 % body weight ([3]; 4 Hrs): 7.82 % dose / 1 % body weight
- Tibia, % dose / 1 % body weight ([3]; 4 Hrs): 5.13 % dose / 1 % body weight
- Urine, % Dose ([3]; 4 Hrs): 22.7 % dose
- Blood, % Dose in Whole Organ ([3]; 4 Hrs): 3.85 % dose
- Bone(Avg), % dose in whole organ ([3]; 4 Hrs): 68.1 % dose
- Marrow, % Dose in Whole Organ ([3]; 4 Hrs): 0.50 % dose
- Muscle, % Dose in Whole Organ ([3]; 4 Hrs): 6.46 % dose
- Bone(Avg), % dose / 1 % body weight ([3]; 24 Hrs): 5.21 % dose / 1 % body weight
- Femur, % dose / 1 % body weight ([3]; 24 Hrs): 4.83 % dose / 1 % body weight
- Kidneys, % Dose in Whole Organ ([3]; 24 Hrs): 0.03 % dose
- Marrow, % dose / 1 % body weight ([3]; 24 Hrs): 0.05 % dose / 1 % body weight
- Pelvis, % dose / 1 % body weight ([3]; 24 Hrs): 5.26 % dose / 1 % body weight
- Spine, % dose / 1 % body weight ([3]; 24 Hrs): 6.47 % dose / 1 % body weight
- Tibia, % dose / 1 % body weight ([3]; 24 Hrs): 4.27 % dose / 1 % body weight
- Blood, % Dose in Whole Organ ([3]; 24 Hrs): 0.29 % dose
- Bone(Avg), % dose in whole organ ([3]; 24 Hrs): 51.9 % dose
- Marrow, % Dose in Whole Organ ([3]; 24 Hrs): 0.10 % dose
- Muscle, % Dose in Whole Organ ([3]; 24 Hrs): 1.00 % dose
- Callus, % dose / 1 % body weight ([4]; 1 Hr): 31.2 % dose / 1 % body weight
- Callus, % dose / 1 % body weight ([4]; 4 Hrs): 37.7 % dose / 1 % body weight
